In US20140336267A1, “UTILIZATION OF THE FUNCTION OF RARE SUGAR AS PROMOTER FOR THE MIGRATION OF GLUCOKINASE FROM NUCLEUS TO CYTOPLASM” (NATIONAL UNIVERSITY CORPORATION KAGAWA UNIVERSITY, priority 2006, published 2014):
Entries after “also recorded” stand apart in the source; their conditions may differ.

Assays:
glucokinase [1] = biological target: T1, glucokinase (Rattus norvegicus, UniProt P17712); assay: Intracellular transfer of hepatic glucokinase with ketose (fluorescence antibody method, rat hepatocyte primary culture); assay type: cell-based
T1 construct: stained by a fluorescence antibody method using an anti-glucokinase antibody; endogenous in cells; host or cells: primary culture of hepatocytes from male Wistar rats
T1 sequence (P17712 1-465 isoform P17712-3): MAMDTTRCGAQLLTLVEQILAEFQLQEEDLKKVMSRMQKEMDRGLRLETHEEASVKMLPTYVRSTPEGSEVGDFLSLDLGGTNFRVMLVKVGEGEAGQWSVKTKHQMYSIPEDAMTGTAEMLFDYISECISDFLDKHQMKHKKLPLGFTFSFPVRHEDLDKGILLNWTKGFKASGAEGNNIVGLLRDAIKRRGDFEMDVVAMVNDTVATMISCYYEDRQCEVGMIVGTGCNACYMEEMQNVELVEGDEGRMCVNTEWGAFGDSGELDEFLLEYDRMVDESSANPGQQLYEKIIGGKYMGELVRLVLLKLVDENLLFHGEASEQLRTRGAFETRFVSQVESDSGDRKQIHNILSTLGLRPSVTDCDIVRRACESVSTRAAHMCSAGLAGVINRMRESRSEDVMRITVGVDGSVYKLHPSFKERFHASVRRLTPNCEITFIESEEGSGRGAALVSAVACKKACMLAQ
Method: Wistar rats (male, aged 5 to 8 weeks) were used. […] The hepatocytes were fixed with 4% para-formaldehyde, and stained by a fluorescence antibody method using an anti-glucokinase antibody. A fluorescent image obtained with a co-focus laser microscope was analyzed with the NIH Image to calculate the fluorescence intensity in the nucleus and the cytoplasm, which were defined as the glucokinase level in the nucleus and the cytoplasm. […] By the same method as described above, the glucokinase level in the intracellular nucleus and the cytoplasm was determined.

glucokinase [2] = biological target: T1, glucokinase; assay: Hepatic glucokinase transfer from nucleus to cytoplasm after oral sugar alone, Wistar rats (Example 2); assay type: in vivo; settings: Wistar rats starved overnight; 2 g/kg oral; 30 minutes later
Method: Thirty minutes later, the rats were subjected to perfusion and fixing with 4% para-formaldehyde under anesthesia, from which liver was immediately resected to prepare frozen sections. The distribution of glucokinase in nucleus and cytoplasm was analyzed with the fluorescence antibody method using an anti-glucokinase antibody. Simultaneously, blood was drawn out from the tail vein and the portal vein, to assay blood glucose levels.

glucokinase [3] = biological target: T1, glucokinase; assay: Hepatic glucokinase transfer from nucleus to cytoplasm after oral sugar given with D-glucose, Wistar rats (Example 3); assay type: in vivo; settings: Wistar rats; 0.2 g/kg oral simultaneously with 2 g/kg D-glucose; 30 minutes later
Method: Male Wistar rats starved overnight were given 2 g/kg D-glucose orally. Simultaneously, 0.2 g/kg D-psicose, D-fructose or a mixture of D-psicose and D-fructose at 1:3 were given orally. Thirty minutes later, the rats were perfused and fixed with 4% para-formaldehyde under anesthesia, from which liver was immediately resected to prepare frozen sections. The distribution of glucokinase in the nucleus and the cytoplasm was analyzed with the fluorescence antibody method using an anti-glucokinase antibody. Simultaneously, blood was drawn out from the tail vein and the portal vein, to assay blood glucose levels.

Goto-Kakizaki rats [4] = assay: Blood glucose levels in tail vein and portal vein after sugar loading, Goto-Kakizaki rats; assay type: in vivo, rat
Method: (§1) The action of suppressing blood glucose increase with D-fructose at a low concentration was examined. To Goto-Kakizaki rats as a model animal of type 2 diabetes mellitus, D-glucose to 2 g/[…] or D-glucose to 2 g/l kg body weight+D-fructose to 0.2 g/1 kg body weight was administered orally, to examine the modification of glucokinase transfer from the nucleus to the cytoplasm in hepatocytes and the change of the blood glucose levels in the portal vein and the tail vein.
(§2) 2 g/kg D-glucose is orally given to male Goto-Kakizaki rats starved overnight. Simultaneously, 0.2 g/kg D-psicose was orally given. Thirty minutes later and 60 minutes later, the rats were perfused and fixed with 4% para-formaldehyde under anesthesia, from which liver was immediately resected to prepare frozen sections. The distribution of hepatic glucokinase in nucleus and cytoplasm was analyzed with the fluorescence antibody method using an anti-glucokinase antibody. Simultaneously, blood was drawn out from the tail vein and the portal vein, to assay blood glucose level and insulin concentration. Herein, liver is divided in the portal vein region and the central vein region of liver. It has been known that the activity of glucokinase in the central vein region is higher by 1.3 fold to 1.5 fold than the activity thereof in the portal vein region. Therefore, the glucokinase distributions in the nucleus and the cytoplasm in the central vein region and the portal vein region were analyzed.

glucokinase [5] = biological target: T1, glucokinase; assay: Hepatic glucokinase transfer from nucleus to cytoplasm in Goto-Kakizaki rats (type 2 diabetes model); assay type: in vivo
Method: as §1, §2

hepatocytes = assay: Lactic acid generation in hepatocytes; assay type: cell-based, rat; settings: each D-ketose added at 0.5 mM; MEM with 15 mM glucose; DMSO control
Method: […] As a control, DMSO was added.
(§3) Cultured hepatocytes were incubated in an MEM culture medium containing 5 mM or 25 mM D-glucose with an action of promoting glucokinase transfer from nucleus to cytoplasm. Glucokinase transfer from nucleus to cytoplasm, glycogen synthesis and lactic acid generation were increased. Via glucose, glucokinase transfer from nucleus to cytoplasm occurs, which raises cytoplasmic glucokinase activity to possibly promote the sugar metabolism in liver. […] (FIGS. 4, 6, 7 and 8)

Goto-Kakizaki rats [6] = assay: Insulin concentrations in tail vein and portal vein under sugar loading, Goto-Kakizaki rats; assay type: in vivo, rat; settings: 0.2 g/kg with 2 g/kg D-glucose oral, 30 minutes and 60 minutes, vs D-glucose alone
Method: as §2

glucokinase [7] = assay: Intracellular transfer of hepatic glucokinase with hormones and various compounds (rat hepatocyte primary culture); assay type: cell-based; settings: 25 mM D-glucose MEM
Method: Wistar rats (male, aged 5 to 8 weeks) were used. A primary culture of the rat hepatocyte was incubated for a certain period of time in a 25 mM D-glucose-containing MEM culture medium supplemented with hormones and various compounds. The hepatocytes were fixed with 4% para-formaldehyde, and stained by a fluorescence antibody method using an anti-glucokinase antibody. A fluorescent image obtained with a co-focus laser microscope was analyzed with the NIH Image to calculate the fluorescence intensity in the nucleus and the cytoplasm, which were defined as the glucokinase level in the nucleus and the cytoplasm.

[8] = system: primary culture of rat hepatocytes; assay: Glucose phosphorylation rate in cultured hepatocytes; assay type: cell-based
Method: Subsequently, the primary culture was incubated at various D-fructose concentrations in the presence of 25 mM D-glucose. […] The results agreed with the results reported so far.

glucokinase [9] = biological target: T1, glucokinase; assay: Glucokinase distribution in primary hepatocytes with D-glucose and D-fructose (fluorescence antibody method); assay type: cell-based; settings: 0.5 mM D-fructose present vs absent; 5 mM or 25 mM D-glucose; 37° C. 30 minutes
Method: In the presence of 5 mM D-glucose, glucokinase mainly existed in the cell nucleus.
as §3

[10] = ketose added, MEM culture medium with 5 mM or 15 mM D-glucose
[11] = 0.2 g/kg with 2 g/kg D-glucose oral, 30 minutes and 60 minutes, vs D-glucose alone
[12] = 0.2 g/kg with 2 g/kg D-glucose oral, compared with D-glucose alone, portal and central vein regions

O=C(CO)[C@@H](O)[C@H](O)[C@@H](O)CO [L-sorbose]
glucokinase transfer from nucleus to cytoplasm (glucokinase [1]; [10]): glucokinase transferred from nucleus to cytoplasm as the L-sorbose concentration was raised

O=C(CO)[C@H](O)[C@H](O)[C@@H](O)CO [L-tagatose]
glucokinase transfer from nucleus to cytoplasm (glucokinase [1]; [10]): never influenced the glucokinase transfer

O=C(CO)[C@H](O)[C@@H](O)[C@@H](O)CO [L-fructose]
glucokinase transfer from nucleus to cytoplasm (glucokinase [1]; ketose added at 20 mM or more, 5 mM or 15 mM D-glucose): glucokinase transfer from nucleus to cytoplasm was gradually reduced
glucokinase transfer from nucleus to cytoplasm (glucokinase [1]; [10]): glucokinase transferred from nucleus to cytoplasm

O=C(CO)[C@H](O)[C@@H](O)[C@H](O)CO [D-sorbose]
glucokinase transfer from nucleus to cytoplasm (glucokinase [1]; at any of the ketose concentrations): did not influence glucokinase transfer; also recorded: hardly influenced such glucokinase transfer

O=C(CO)[C@H](O)[C@H](O)[C@H](O)CO [D-psicose]
glucokinase transfer from the nucleus to the cytoplasm in hepatocytes (glucokinase [2]): glucokinase transfer from the nucleus to the cytoplasm could be observed
glucokinase transfer from nucleus to cytoplasm (glucokinase [1]; even at a high ketose concentration): exerted an action to promote glucokinase transfer from nucleus to cytoplasm
glucokinase transfer from nucleus to cytoplasm (glucokinase [1]; [10]): glucokinase transferred from nucleus to cytoplasm
glucokinase transfer from the nucleus to the cytoplasm in hepatocytes (glucokinase [3]): glucokinase was transferred to the cytoplasm apparently but more weakly than with D-fructose
glucose concentration in the portal vein (Goto-Kakizaki rats [4]; [11]): significantly lower values
glucose concentration in the tail vein (Goto-Kakizaki rats [4]; [11]): significantly lower values
cytoplasmic glucokinase fluorescence (liver) (glucokinase [5]; [12]): increased the cytoplasmic fluorescence
nuclear glucokinase fluorescence (liver) (glucokinase [5]; [12]): significantly reduced the nuclear fluorescence
cytoplasmic glucokinase level (fluorescence intensity analysis) (glucokinase [5]; simultaneous administration with D-glucose vs D-glucose alone, central vein and portal vein regions): further increased the cytoplasmic glucokinase level
lactic acid generation (hepatocytes): lactic acid generation was increased
insulin concentration in the portal vein (Goto-Kakizaki rats [6]): significantly lower values
insulin concentration in the tail vein (Goto-Kakizaki rats [6]): significantly lower values

CC(C)Cn1c(=O)n(C)c(=O)c2[nH]cnc21 [IBMX]
cytoplasmic glucokinase (glucokinase [7]; hormone or compound alone): cytoplasmic glucokinase activity was reduced

insulin: hormone that transfers glucokinase from nucleus to cytoplasm
cytoplasmic glucokinase (glucokinase [7]; hormone or compound alone): increase of cytoplasmic glucokinase

O=C(CO)[C@@H](O)[C@@H](O)[C@@H](O)CO [L-psicose]
glucokinase transfer from nucleus to cytoplasm (glucokinase [1]; [10]): glucokinase transferred from nucleus to cytoplasm

glucagon: hormone that transfers glucokinase from cytoplasm to nucleus
cytoplasmic glucokinase (glucokinase [7]; hormone or compound alone): cytoplasmic glucokinase activity was reduced

O=C(CO)[C@@H](O)[C@@H](O)[C@H](O)CO [D-tagatose]
glucokinase transfer from nucleus to cytoplasm (glucokinase [1]; ketose added up to 1 mM, any of the D-glucose concentrations): glucokinase transferred from nucleus to cytoplasm
glucokinase transfer from nucleus to cytoplasm (glucokinase [1]; [10]): glucokinase transferred from nucleus to cytoplasm
glucokinase transfer from nucleus to cytoplasm (glucokinase [1]; ketose concentration 10 mM or more): no change of the glucokinase transfer was observed; also recorded: no glucokinase transfer from nucleus to cytoplasm was observed

CCCC(=O)Nc1ncnc2c1ncn2[C@@H]1O[C@@H]2COP(=O)(O)O[C@H]2[C@H]1OC(=O)CCC [Bt2cAMP]
cytoplasmic glucokinase (glucokinase [7]; hormone or compound alone): cytoplasmic glucokinase activity was reduced

COc1cccc(-c2cc(=O)c3ccccc3o2)c1N [PD-98059]
cytoplasmic glucokinase (glucokinase [7]; compound in the presence of insulin): such change could not be observed

CCCCCCOC(=O)[C@]1(O)C[C@@H]2O[C@@]1(C)n1c3ccccc3c3c4c(c5c6ccccc6n2c5c31)C(=O)NC4 [KT-5720]
cytoplasmic glucokinase (glucokinase [7]; compound in the presence of glucagon): Almost no reduction of cytoplasmic glucokinase with glucagon was observed any more

O=C(CO)[C@@H](O)[C@H](O)[C@H](O)CO [D-fructose]
glucokinase transfer from the nucleus to the cytoplasm in hepatocytes (glucokinase [2]): a higher level of the transfer was observed than with D-psicose
glucokinase transfer from nucleus to cytoplasm (glucokinase [1]; ketose added at 1 mM or more, 5 mM or 15 mM D-glucose): glucokinase transfer from nucleus to cytoplasm was gradually reduced
glucokinase transfer from nucleus to cytoplasm (glucokinase [1]; [10]): glucokinase transferred from nucleus to cytoplasm
glucokinase transfer from the nucleus to the cytoplasm in hepatocytes (glucokinase [3]): glucokinase was mostly transferred to the cytoplasm
glucose phosphorylation ([8]; 0.5 mM D-fructose present vs absent, various glucose concentrations): enhanced glucose phosphorylation in the hepatocytes
glucose phosphorylation ([8]; above 0.5 mM D-fructose, 25 mM D-glucose): glucose phosphorylation was reduced
glucose phosphorylation ([8]; up to 0.5 mM D-fructose, 25 mM D-glucose): glucose phosphorylation was enhanced as the D-fructose concentration was raised
blood glucose level in the portal vein (Goto-Kakizaki rats [4]; additional supplement of D-fructose compared with D-glucose alone): suppressed significantly
blood glucose level in the portal vein (Goto-Kakizaki rats [4]; effect of D-fructose loading added to D-glucose): No difference was observed
glucokinase transfer from the nucleus to the cytoplasm in hepatocytes (glucokinase [5]; D-glucose 2 g/kg + D-fructose 0.2 g/kg oral, compared with D-glucose alone): significantly increased
lactic acid generation (hepatocytes): lactic acid generation was increased
glucokinase transfer from the nucleus to the cytoplasm (glucokinase [9]): the glucokinase transfer from the nucleus to the cytoplasm increased
